Test results from patent publication US6479435B1, “Diaryl ethers and processes for their preparation and herbicidal and desiccant compositions containing them” (ISK Americas Incorporated, priority 1997, dated 2002).

What was measured:
Assay type in all cases: in vivo
[1] = test system: upland rice (Oryza sp., var.Tebonnet, RICE); experiment: Post-emerge greenhouse test, crop damage rating; settings: 14 days after application
Text: (§1) A standard greenhouse herbicide activity screening system was used to evaluate the herbicidal efficacy and crop safety of these test compounds. Six broadleaf weed species including redroot pigweed (Amaranthus retroflexus, AMARE), velvetleaf (Abutilon theophrasti, ABUTH), sicklepod (Cassia obtusifolia, CASOB), ivyleaf morningglory (Ipomoea hederacea, IPOHE), lambsquarters (Chenopodium album, CHEAL) and common ragweed (Ambrosia artemisiifolia L., AMBEL) were used as test species. Four grass weed species including green foxtail (Setaria viridis, SETVI), barnyardgrass (Echinochloa crusgalli, ECHCG), Johnsongrass (Sorghum halepense, SORHA), and large crabgrass (Digitaria sanguinalis, DIGSA) were also used. In addition, three crop species, field corn (Zea mays L., var. Dekalb 535, CORN), soybean (Glycine max L., var. Pella 86, SOY), and upland rice (Oryza sp., var.Tebonnet, RICE) were included.
(§2) All test compounds were dissolved in acetone and applied to the test units in a volume of 187 l/ha. Test materials were applied at rates ranging from 125 g ai/ha to 1000 g ai/ha using a track sprayer equipped with a TJ8001E even flow flat fan spray nozzle. Plants were arranged on a shelf so that the top of the canopy (post-emerge) or top of the soil surface (pre-emerge) was 40-45 cm below the nozzle. Pressurized air was used to force the test solution through the nozzle as it was mechanically advanced (via electrically driven chain drive) over the top of all test plants/pots. This application simulates a typical commercial field herbicide application.
(§3) In the post-emerge test, a commercial non-ionic surfactant was also included (0.25% v/v) to enhance wetting of the leaf surfaces Qf target plants at rates ranging from 63 g ai/ha to 1000 g ai/ha. For post-emerge tests, seeds were planted 8-21 days prior to the test to allow emergence and good foliage development prior to application of the test substances. At the time of the post-emerge application, plants of all species were usually at the 2-3 leaf stage of development. Post-emerge test units were always bottom-watered.
(§4) At 14 days after application of the test materials, phytotoxicity ratings were recorded. A rating scale of 0-100 was used as previously described in Research Methods in Weed Science, 2nd edition, B. Truelove, Ed., Southern Weed Science Society, Auburn University, Auburn, Ala., 1977. Briefly, “0” corresponds to no damage and “100” corresponds to complete death of all plants in the test unit. This scale was used both to determine efficacy against weed species and damage to crop species. Herbicide activity data for various compounds of this invention, which are shown by compound number in Tables 1-9, are shown in Tables 13 and 14.

[2] = test system: field corn (Zea mays L., var. Dekalb 535, CORN); experiment: Post-emerge greenhouse test, crop damage rating; settings: 14 days after application
Text: as §1, §2, §3, §4

[3] = test system: velvetleaf (Abutilon theophrasti, ABUTH); experiment: Post-emerge greenhouse herbicide test, phytotoxicity rating; settings: 14 days after application
Text: as §1, §2, §3, §4

[4] = test system: sicklepod (Cassia obtusifolia, CASOB); experiment: as above; settings: 14 days after application
Text: as §1, §2, §3, §4

[5] = test system: Johnsongrass (Sorghum halepense, SORHA); experiment: as above; settings: 14 days after application
Text: as §1, §2, §3, §4

[6] = test system: redroot pigweed (Amaranthus retroflexus, AMARE); experiment: as above; settings: 14 days after application
Text: as §1, §2, §3, §4

[7] = test system: green foxtail (Setaria viridis, SETVI); experiment: as above; settings: 14 days after application
Text: as §1, §2, §3, §4

[8] = test system: ivyleaf morningglory (Ipomoea hederacea, IPOHE); experiment: as above; settings: 14 days after application
Text: as §1, §2, §3, §4

[9] = test system: barnyardgrass (Echinochloa crusgalli, ECHCG); experiment: as above; settings: 14 days after application
Text: as §1, §2, §3, §4

[10] = test system: large crabgrass (Digitaria sanguinalis, DIGSA); experiment: as above; settings: 14 days after application
Text: as §1, §2, §3, §4

[11] = test system: lambsquarters (Chenopodium album, CHEAL); experiment: as above; settings: 14 days after application
Text: as §1, §2, §3, §4

[12] = test system: velvetleaf (Abutilon theophrasti, ABUTH); experiment: Pre-emerge greenhouse herbicide test, phytotoxicity rating; settings: 14 days after application, rating scale 0-100
Text: as §1
(§5) All plants were grown in 10 cm square plastic pots which were filled with a sandy loam soil mix. For preemerge tests, seeds were planted one day prior to application of the test compounds. Immediately after application, test units of the pre-emerge applications were watered at the soil surface to incorporate the test materials. Subsequently, these test units were bottom-watered.
as §2, §4

[13] = test system: sicklepod (Cassia obtusifolia, CASOB); experiment: as above; settings: 14 days after application, rating scale 0-100
Text: as §1, §5, §2, §4

[14] = test system: Johnsongrass (Sorghum halepense, SORHA); experiment: as above; settings: 14 days after application, rating scale 0-100
Text: as §1, §5, §2, §4

[15] = test system: redroot pigweed (Amaranthus retroflexus, AMARE); experiment: as above; settings: 14 days after application, rating scale 0-100
Text: as §1, §5, §2, §4

[16] = test system: green foxtail (Setaria viridis, SETVI); experiment: as above; settings: 14 days after application, rating scale 0-100
Text: as §1, §5, §2, §4

[17] = test system: ivyleaf morningglory (Ipomoea hederacea, IPOHE); experiment: as above; settings: 14 days after application, rating scale 0-100
Text: as §1, §5, §2, §4

[18] = test system: barnyardgrass (Echinochloa crusgalli, ECHCG); experiment: as above; settings: 14 days after application, rating scale 0-100
Text: as §1, §5, §2, §4

[19] = test system: large crabgrass (Digitaria sanguinalis, DIGSA); experiment: as above; settings: 14 days after application, rating scale 0-100
Text: as §1, §5, §2, §4

[20] = test system: lambsquarters (Chenopodium album, CHEAL); experiment: as above; settings: 14 days after application, rating scale 0-100
Text: as §1, §5, §2, §4

[21] = test system: upland rice (Oryza sp., var.Tebonnet, RICE); experiment: Pre-emerge greenhouse test, crop damage rating; settings: 14 days after application, rating scale 0-100
Text: as §1, §5, §2, §4

[22] = test system: field corn (Zea mays L., var. Dekalb 535, CORN); experiment: Pre-emerge greenhouse test, crop damage rating; settings: 14 days after application, rating scale 0-100
Text: as §1, §5, §2, §4

[23] = test system: soybean (Glycine max L., var. Pella 86, SOY); experiment: Pre-emerge greenhouse test, crop damage rating; settings: 14 days after application, rating scale 0-100
Text: as §1, §5, §2, §4

[24] = test system: soybean (Glycine max L., var. Pella 86, SOY); experiment: Post-emerge greenhouse test, crop damage rating; settings: 14 days after application
Text: as §1, §2, §3, §4

N#Cc1cccnc1Oc1cc(-n2c(=O)cc3n(c2=O)CCC3)c(F)cc1Cl [Compound 5-9]
RICE crop damage rating (0-100) ([1]; 1000 g al/ha): 25
CORN crop damage rating (0-100) ([2]; 1000 g al/ha): 5
ABUTH phytotoxicity rating (0-100) ([3]; 1000 g al/ha): 100
CASOB phytotoxicity rating (0-100) ([4]; 1000 g al/ha): 30
SORHA phytotoxicity rating (0-100) ([5]; 1000 g al/ha): 0
AMARE phytotoxicity rating (0-100) ([6]; 1000 g al/ha): 50
SETVI phytotoxicity rating (0-100) ([7]; 1000 g al/ha): 10
IPOHE phytotoxicity rating (0-100) ([8]; 1000 g al/ha): 90
ECHCG phytotoxicity rating (0-100) ([9]; 1000 g al/ha): 0
DIGSA phytotoxicity rating (0-100) ([10]; 1000 g al/ha): 0
CHEAL phytotoxicity rating (0-100) ([11]; 1000 g al/ha): 70
phytotoxicity rating ABUTH ([12]; 1000 g ai/ha): 100
phytotoxicity rating CASOB ([13]; 1000 g ai/ha): 30
phytotoxicity rating SORHA ([14]; 1000 g ai/ha): 90
phytotoxicity rating AMARE ([15]; 1000 g ai/ha): 80
phytotoxicity rating SETVI ([16]; 1000 g ai/ha): 90
phytotoxicity rating IPOHE ([17]; 1000 g ai/ha): 100
phytotoxicity rating ECHCG ([18]; 1000 g ai/ha): 0
phytotoxicity rating DIGSA ([19]; 1000 g ai/ha): 90
phytotoxicity rating CHEAL ([20]; 1000 g ai/ha): 100
crop damage rating RICE ([21]; 1000 g ai/ha): 50
crop damage rating CORN ([22]; 1000 g ai/ha): 0
crop damage rating SOY ([23]; 1000 g ai/ha): 50
SOY crop damage rating (0-100) ([24]; 1000 g al/ha): 30

O=c1cc2n(c(=O)n1-c1cc(Oc3ncccn3)c(Cl)cc1F)CCC2 [Compound 5-12]
RICE crop damage rating (0-100) ([1]; 63 g al/ha): 0
RICE crop damage rating (0-100) ([1]; 500 g al/ha): 70
CORN crop damage rating (0-100) ([2]; 63 g al/ha): 0
CORN crop damage rating (0-100) ([2]; 500 g al/ha): 20
ABUTH phytotoxicity rating (0-100) ([3]; 63 g al/ha): 60
ABUTH phytotoxicity rating (0-100) ([3]; 500 g al/ha): 95
CASOB phytotoxicity rating (0-100) ([4]; 63 g al/ha): 10
CASOB phytotoxicity rating (0-100) ([4]; 500 g al/ha): 50
SORHA phytotoxicity rating (0-100) ([5]; 63 g al/ha): 0
SORHA phytotoxicity rating (0-100) ([5]; 500 g al/ha): 20
AMARE phytotoxicity rating (0-100) ([6]; 63 g al/ha): 80
AMARE phytotoxicity rating (0-100) ([6]; 500 g al/ha): 40
SETVI phytotoxicity rating (0-100) ([7]; 63 g al/ha): 0
SETVI phytotoxicity rating (0-100) ([7]; 500 g al/ha): 50
IPOHE phytotoxicity rating (0-100) ([8]; 63 g al/ha): 40
IPOHE phytotoxicity rating (0-100) ([8]; 500 g al/ha): 30
ECHCG phytotoxicity rating (0-100) ([9]; 63 g al/ha): 0
ECHCG phytotoxicity rating (0-100) ([9]; 500 g al/ha): 40
DIGSA phytotoxicity rating (0-100) ([10]; 63 g al/ha): 0
DIGSA phytotoxicity rating (0-100) ([10]; 500 g al/ha): 40
CHEAL phytotoxicity rating (0-100) ([11]; 63 g al/ha): 60
CHEAL phytotoxicity rating (0-100) ([11]; 500 g al/ha): 75
phytotoxicity rating ABUTH ([12]; 125 g ai/ha): 100
phytotoxicity rating ABUTH ([12]; 500 g ai/ha): 100
phytotoxicity rating CASOB ([13]; 125 g ai/ha): 50
phytotoxicity rating CASOB ([13]; 500 g ai/ha): 100
phytotoxicity rating SORHA ([14]; 125 g ai/ha): 40
phytotoxicity rating SORHA ([14]; 500 g ai/ha): 100
phytotoxicity rating AMARE ([15]; 125 g ai/ha): 100
phytotoxicity rating AMARE ([15]; 500 g ai/ha): 100
phytotoxicity rating SETVI ([16]; 125 g ai/ha): 100
phytotoxicity rating SETVI ([16]; 500 g ai/ha): 100
phytotoxicity rating IPOHE ([17]; 125 g ai/ha): 80
phytotoxicity rating IPOHE ([17]; 500 g ai/ha): 100
phytotoxicity rating ECHCG ([18]; 125 g ai/ha): 20
phytotoxicity rating ECHCG ([18]; 500 g ai/ha): 100
phytotoxicity rating DIGSA ([19]; 125 g ai/ha): 100
phytotoxicity rating DIGSA ([19]; 500 g ai/ha): 100
phytotoxicity rating CHEAL ([20]; 125 g ai/ha): 100
phytotoxicity rating CHEAL ([20]; 500 g ai/ha): 100
crop damage rating RICE ([21]; 125 g ai/ha): 60
crop damage rating RICE ([21]; 500 g ai/ha): 100
crop damage rating CORN ([22]; 125 g ai/ha): 10
crop damage rating CORN ([22]; 500 g ai/ha): 40
crop damage rating SOY ([23]; 125 g ai/ha): 40
crop damage rating SOY ([23]; 500 g ai/ha): 80
SOY crop damage rating (0-100) ([24]; 63 g al/ha): 50
SOY crop damage rating (0-100) ([24]; 500 g al/ha): 100

CCN1CC(=O)N(c2cc(Oc3ncccc3C(F)(F)F)c(Cl)cc2F)C1=O [Compound 8-1, 3-[4-chloro-2-fluoro-5-(trifluoromethyl-2-pyridyloxy)phenyl]-1-ethylimidazolidine-2,4-dione]
RICE crop damage rating (0-100) ([1]; 500 g al/ha): 0
CORN crop damage rating (0-100) ([2]; 500 g al/ha): 0
ABUTH phytotoxicity rating (0-100) ([3]; 500 g al/ha): 90
CASOB phytotoxicity rating (0-100) ([4]; 500 g al/ha): 30
SORHA phytotoxicity rating (0-100) ([5]; 500 g al/ha): 0
AMARE phytotoxicity rating (0-100) ([6]; 500 g al/ha): 40
SETVI phytotoxicity rating (0-100) ([7]; 500 g al/ha): 10
IPOHE phytotoxicity rating (0-100) ([8]; 500 g al/ha): 70
ECHCG phytotoxicity rating (0-100) ([9]; 500 g al/ha): 0
DIGSA phytotoxicity rating (0-100) ([10]; 500 g al/ha): 0
CHEAL phytotoxicity rating (0-100) ([11]; 500 g al/ha): 85
phytotoxicity rating ABUTH ([12]; 500 g ai/ha): 95
phytotoxicity rating CASOB ([13]; 500 g ai/ha): 70
phytotoxicity rating SORHA ([14]; 500 g ai/ha): 60
phytotoxicity rating AMARE ([15]; 500 g ai/ha): 100
phytotoxicity rating SETVI ([16]; 500 g ai/ha): 85
phytotoxicity rating IPOHE ([17]; 500 g ai/ha): 30
phytotoxicity rating ECHCG ([18]; 500 g ai/ha): 40
phytotoxicity rating DIGSA ([19]; 500 g ai/ha): 100
phytotoxicity rating CHEAL ([20]; 500 g ai/ha): 100
crop damage rating RICE ([21]; 500 g ai/ha): 30
crop damage rating CORN ([22]; 500 g ai/ha): 0
crop damage rating SOY ([23]; 500 g ai/ha): 0
SOY crop damage rating (0-100) ([24]; 500 g al/ha): 50
